# Results from US8178658B2 (Dow AgroSciences, LLC, priority 2008, dated 2012).
# Key:
# [1] = test system: beet armyworm (BAW; Spodoptera exigua: Lepidoptera); assay: 96-well microtiter plate-based high throughput (HTS) diet bioassay on beet armyworm (BAW HTS); type: in vivo; conditions: BAW eggs, 12 μg test compound per well, mortality at 6 d post-treatment, mortality class
# In short: (§1)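 Mortality is the read-out for both formats, scored against a 50% cut-off. Microplate wells received eggs over diet carrying 12 μg test compound, kept in darkness at 29° C for 6 d, six replicates averaged. Diet-tray wells held second instar larvae on diet at 50 μg/cm^2, kept 6 d at 25° C under 14:10 photoperiod.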
# [2] = test system: beet armyworm (BAW; Spodoptera exigua: Lepidoptera); assay: 128-well diet tray assay on beet armyworm (BAW 50); type: in vivo; conditions: 128-well diet tray assay; 50 μg/cm^2 of test compound on diet; second instar BAW larvae; mortality class
# In short: as §1
# [3] = 96-well microtiter plate HTS diet assay
Compound,BAW HTS ([1]; 96-well HTS diet bioassay),"BAW HTS [1, 3]",BAW 50 ug/cm2 [2]
COC1C(C)OC(ON=Cc2ccc(-c3cn(-c4ccc(I)cc4)cn3)cc2)C(OC)C1OC (stereo not drawn) [Compound 47],B (either (1) the compound was tested and less than 50 percent mortality was observed or (2) the compound was not tested),B (either (1) the compound was tested and less than 50 percent mortality was observed or (2) the compound was not tested),A (the compound was tested and at least 50 percent mortality was observed)
COC1C(C)OC(ON=Cc2ccc(-c3cn(-c4ccc(C(C)(C)C)cc4)cn3)cc2)C(OC)C1OC (stereo not drawn) [Compound 48],B (either (1) the compound was tested and less than 50 percent mortality was observed or (2) the compound was not tested),B (either (1) the compound was tested and less than 50 percent mortality was observed or (2) the compound was not tested),A (the compound was tested and at least 50 percent mortality was observed)
COC1C(C)OC(ON=Cc2ccc(-c3cn(-c4ccc(OC(F)(F)F)cc4)cn3)c(F)c2F)C(OC)C1OC (stereo not drawn) [Compound 49],B (either (1) the compound was tested and less than 50 percent mortality was observed or (2) the compound was not tested),B (either (1) the compound was tested and less than 50 percent mortality was observed or (2) the compound was not tested),A (the compound was tested and at least 50 percent mortality was observed)
COC1C(C)OC(ON=Cc2ccc(Cl)c(-c3cn(-c4ccc(OC(F)(F)F)cc4)cn3)c2)C(OC)C1OC (stereo not drawn) [Compound 50],A (the compound was tested and at least 50 percent mortality was observed),A (the compound was tested and at least 50 percent mortality was observed),A (the compound was tested and at least 50 percent mortality was observed)
CO[C@@H]1[C@@H](OC)[C@H](C)O[C@@H](O/N=C/c2ccc(-c3cn(-c4ccc(OC(F)(F)C(F)(F)F)cc4)cn3)cc2)[C@@H]1OC [Compound 51],B (either (1) the compound was tested and less than 50 percent mortality was observed or (2) the compound was not tested),B (either (1) the compound was tested and less than 50 percent mortality was observed or (2) the compound was not tested),A (the compound was tested and at least 50 percent mortality was observed)
CCOC1C(C)OC(ON=Cc2ccc(-c3cn(-c4ccc(OC(F)(F)C(F)(F)F)cc4)cn3)cc2)C(OCC)C1OCC (stereo not drawn) [Compound 52],B (either (1) the compound was tested and less than 50 percent mortality was observed or (2) the compound was not tested),B (either (1) the compound was tested and less than 50 percent mortality was observed or (2) the compound was not tested),A (the compound was tested and at least 50 percent mortality was observed)
CCOC(=O)C1C(c2ccc(/C=N/O[C@@H]3O[C@@H](C)[C@H](OC)[C@@H](OC)[C@H]3OC)cc2)=NN(c2ccc(OC(F)(F)F)cc2)C1C(=O)OCC (stereo partly drawn) [Compound 53],A (the compound was tested and at least 50 percent mortality was observed),A (the compound was tested and at least 50 percent mortality was observed),A (the compound was tested and at least 50 percent mortality was observed)
COC(=O)C1CC(c2ccc(/C=N/O[C@@H]3O[C@@H](C)[C@H](OC)[C@@H](OC)[C@H]3OC)cc2)=NN1c1ccc(OC(F)(F)F)cc1 (stereo partly drawn) [Compound 54],A (the compound was tested and at least 50 percent mortality was observed),A (the compound was tested and at least 50 percent mortality was observed),A (the compound was tested and at least 50 percent mortality was observed)
CCCC1C(c2ccc(/C=N/O[C@@H]3O[C@@H](C)[C@H](OC)[C@@H](OC)[C@H]3OC)cc2)=NN(c2ccc(OC(F)(F)F)cc2)C1C(=O)OCC (stereo partly drawn) [Compound 55],A (the compound was tested and at least 50 percent mortality was observed),A (the compound was tested and at least 50 percent mortality was observed),A (the compound was tested and at least 50 percent mortality was observed)
CCOC(=O)C1C(C)C(c2ccc(/C=N/O[C@@H]3O[C@@H](C)[C@H](OC)[C@@H](OC)[C@H]3OC)cc2)=NN1c1ccc(OC(F)(F)F)cc1 (stereo partly drawn) [Compound 56],A (the compound was tested and at least 50 percent mortality was observed),A (the compound was tested and at least 50 percent mortality was observed),A (the compound was tested and at least 50 percent mortality was observed)
COC1C(C)OC(ON=Cc2ccc(-n3cnc(-c4ccc(C(F)(F)F)cc4)c3)cc2)C(OC)C1OC (stereo not drawn) [Compound 57],A (the compound was tested and at least 50 percent mortality was observed),A (the compound was tested and at least 50 percent mortality was observed),A (the compound was tested and at least 50 percent mortality was observed)
COC1C(C)OC(ON=Cc2cccc(-c3cn(-c4ccc(OC(F)(F)F)cc4)cn3)c2)C(OC)C1OC (stereo not drawn) [Compound 58],A (the compound was tested and at least 50 percent mortality was observed),A (the compound was tested and at least 50 percent mortality was observed),A (the compound was tested and at least 50 percent mortality was observed)
COC1C(C)OC(ON=Cc2ccc(-c3cn(-c4ccc(OC(F)(F)F)c(C(F)(F)F)c4)cn3)cc2)C(OC)C1OC (stereo not drawn) [Compound 59],A (the compound was tested and at least 50 percent mortality was observed),A (the compound was tested and at least 50 percent mortality was observed),A (the compound was tested and at least 50 percent mortality was observed)
CCCc1ccc(-c2cc(-c3ccc(C=NOC4OC(C)C(OC)C(OC)C4OC)cc3)no2)cc1 (stereo not drawn) [Compound 60],A (the compound was tested and at least 50 percent mortality was observed),A (the compound was tested and at least 50 percent mortality was observed),A (the compound was tested and at least 50 percent mortality was observed)
CCCCOc1ccc(-c2cc(-c3ccc(C=NOC4OC(C)C(OC)C(OC)C4OC)cc3)no2)cc1 (stereo not drawn) [Compound 61],A (the compound was tested and at least 50 percent mortality was observed),A (the compound was tested and at least 50 percent mortality was observed),A (the compound was tested and at least 50 percent mortality was observed)
COc1ccc(-c2nc(-c3ccc(C=NOC4OC(C)C(OC)C(OC)C4OC)cc3)cs2)cc1 (stereo not drawn) [Compound 62],A (the compound was tested and at least 50 percent mortality was observed),A (the compound was tested and at least 50 percent mortality was observed),A (the compound was tested and at least 50 percent mortality was observed)
COC1C(C)OC(ON=Cc2ccc(-c3csc(-c4ncc(C(F)(F)F)cc4Cl)n3)cc2)C(OC)C1OC (stereo not drawn) [Compound 63],A (the compound was tested and at least 50 percent mortality was observed),A (the compound was tested and at least 50 percent mortality was observed),A (the compound was tested and at least 50 percent mortality was observed)
